Laboratory results from ChEMBL document CHEMBL1122928, “Stereostructure-activity relationship of opioid agonist and antagonist bivalent ligands. Evidence for bridging between vicinal opioid receptors” (J Med Chem, 1985).

Columns and labels:
[1] = target: T1, Opioid receptors; mu/kappa/delta (Homo sapiens) (UniProt P41145+P41143+P35372); experiment: In vitro agonist activity towards opioid receptor on the electrically stimulated Guinea pig ileal longitudinal muscle (GPI); morphine IC50/ agonist IC50 in the same tissue; type: functional; settings: Cavia porcellus; target entry is the homologue from another species
T1 sequence (P35372 whole entry, looked up): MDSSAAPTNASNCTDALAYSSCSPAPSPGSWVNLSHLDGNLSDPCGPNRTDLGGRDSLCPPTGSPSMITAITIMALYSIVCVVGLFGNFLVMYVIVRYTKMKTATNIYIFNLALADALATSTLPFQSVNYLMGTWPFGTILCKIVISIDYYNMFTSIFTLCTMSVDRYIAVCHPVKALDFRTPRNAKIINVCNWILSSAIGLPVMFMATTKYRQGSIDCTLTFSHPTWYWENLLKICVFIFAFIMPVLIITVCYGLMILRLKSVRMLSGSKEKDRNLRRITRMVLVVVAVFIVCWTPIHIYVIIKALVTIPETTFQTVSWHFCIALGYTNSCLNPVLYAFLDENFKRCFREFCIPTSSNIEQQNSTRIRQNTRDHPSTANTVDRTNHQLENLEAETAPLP
T1 sequence (P41143 whole entry, looked up): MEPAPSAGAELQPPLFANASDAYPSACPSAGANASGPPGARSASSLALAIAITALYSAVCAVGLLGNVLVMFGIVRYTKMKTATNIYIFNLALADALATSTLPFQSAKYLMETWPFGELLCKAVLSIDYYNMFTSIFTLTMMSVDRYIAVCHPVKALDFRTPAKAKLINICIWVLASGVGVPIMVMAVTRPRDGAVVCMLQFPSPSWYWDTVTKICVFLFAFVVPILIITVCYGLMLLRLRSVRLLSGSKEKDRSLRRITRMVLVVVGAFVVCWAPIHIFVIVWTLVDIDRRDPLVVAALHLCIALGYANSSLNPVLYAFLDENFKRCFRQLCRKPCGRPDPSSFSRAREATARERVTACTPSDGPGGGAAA
T1 sequence (P41145 whole entry, looked up): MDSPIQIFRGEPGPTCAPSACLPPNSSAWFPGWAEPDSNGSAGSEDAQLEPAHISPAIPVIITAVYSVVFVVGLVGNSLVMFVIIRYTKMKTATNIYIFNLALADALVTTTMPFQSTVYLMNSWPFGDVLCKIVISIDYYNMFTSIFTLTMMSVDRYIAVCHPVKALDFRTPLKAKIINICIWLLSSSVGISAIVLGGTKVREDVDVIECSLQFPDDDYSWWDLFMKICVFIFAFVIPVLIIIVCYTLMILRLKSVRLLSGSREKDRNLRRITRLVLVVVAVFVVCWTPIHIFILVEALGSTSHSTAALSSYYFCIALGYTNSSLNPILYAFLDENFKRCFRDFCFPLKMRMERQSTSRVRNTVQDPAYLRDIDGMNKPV

[2] = target: T1, Opioid receptors; mu/kappa/delta (Homo sapiens); experiment: The relative potency was evaluated with respect to morphine.; settings: Cavia porcellus

Structure (SMILES)	Potency ratio [1]	Relative potency [2]
CN1CCC23c4c5ccc(O)c4OC2C(NC(=O)CNC(=O)CNC(=O)CCC(=O)NCC(=O)NCC(=O)NC2CCC4(O)[C@H]6Cc7ccc(O)c8c7C4(CCN6C)C2O8)CCC3(O)[C@H]1C5 (stereo partly drawn)	7.6	
O=C(CCC(=O)NCC(=O)NCC(=O)NC1CCC2(O)[C@H]3Cc4ccc(O)c5c4C2(CCN3CC2CC2)C1O5)NCC(=O)NCC(=O)NC1CCC2(O)[C@@H]3Cc4ccc(O)c5c4C2(CCN3CC2CC2)C1O5 (single isomer, unassigned; (-))	181	33.5
CC(=O)NCC(=O)NCC(=O)NC1CCC2(O)[C@H]3Cc4ccc(O)c5c4C2(CCN3CC2CC2)C1O5 (stereo partly drawn)	5.4	1
O=C(CCC(=O)NCC(=O)NCC(=O)NC1CCC2(O)[C@H]3Cc4ccc(O)c5c4C2(CCN3CC2CC2)C1O5)NCC(=O)NCC(=O)NC1CCC2(O)[C@H]3Cc4ccc(O)c5c4C2(CCN3CC2CC2)C1O5 (stereo partly drawn)	7.8	1.4
CC(=O)NCC(=O)NCC(=O)NC1CCC2(O)[C@H]3Cc4ccc(O)c5c4C2(CCN3C)C1O5 (stereo partly drawn)	1.9	
